Literature values, collected in patent US20090253744A1, “Acylated piperidine derivatives as melanocortin-4 receptor modulators” (priority 2006, published 2009).

Experiments:
[1] = system: males with psychogenic erectile dysfunction; details: injected intramuscularly or subcutaneously
erectile dysfunction = details: in vivo

Compound | response rate [1] [%] | effective in % of patients (erectile dysfunction)
Ac-Nle-c[Asp-His-DPhe-Arg-Trp-Lys]-NH2 [MT-II] | 75 | 
CCCc1nn(C)c2c(=O)[nH]c(-c3cc(S(=O)(=O)N4CCN(C)CC4)ccc3OCC)nc12 [Sildenafil] |  | about 70%
